# In US11305017B2, “Anti-fugetactic agent and anti-cancer agent combination therapy and compositions for the treatment of cancer” (The General Hospital Corporation, priority 2015, dated 2022):
# Tested on: tumor that expresses high levels of CXCL12
# Test: Tumor growth in mice bearing a subcutaneous CXCL12-expressing tumor
SMILES,"Delay in tumor growth, co-treatment versus TAX alone (AMD3100 subcutaneous once a day for 5 days, then 12.5 mg/kg TAX intraperitoneal one to three days after the final dose)","Tumor growth (12.5 mg/kg paclitaxel (TAX) intraperitoneal, 18 hours prior to assay, mice not administered AMD3100)"
c1cc(CN2CCCNCCNCCCNCC2)ccc1CN1CCCNCCNCCCNCC1 [AMD3100],synergistic effect,
"CC(=O)O[C@H]1C(=O)[C@@]2(C)[C@H]([C@H](OC(=O)c3ccccc3)[C@]3(O)C[C@H](OC(=O)[C@H](O)[C@@H](NC(=O)c4ccccc4)c4ccccc4)C(C)=C1C3(C)C)[C@]1(OC(C)=O)CO[C@@H]1C[C@@H]2O [TAX, paclitaxel]",,"delayed by TAX treatment, but resumes soon after the treatment is discontinued"
